# Data as given in ChEMBL document CHEMBL4387717, “Structure guided drug design to develop kallikrein 5 inhibitors to treat Netherton syndrome” (Bioorg Med Chem Lett, 2019).
# How the values were obtained:
# Kallikrein-5 = target: T1, Kallikrein-5 (Homo sapiens, UniProt Q9Y337); assay: Inhibition of recombinant 6His-Q-FLAG tagged human KLK5 expressed in baculovirus infected Sf9 insect cells using (Tos-Gly-Pro-Arg)2[R110].2TFA as substrate measured at 30 secs interval for 5 mins by fluorescence intensity assay
# T1 sequence (Q9Y337 whole entry): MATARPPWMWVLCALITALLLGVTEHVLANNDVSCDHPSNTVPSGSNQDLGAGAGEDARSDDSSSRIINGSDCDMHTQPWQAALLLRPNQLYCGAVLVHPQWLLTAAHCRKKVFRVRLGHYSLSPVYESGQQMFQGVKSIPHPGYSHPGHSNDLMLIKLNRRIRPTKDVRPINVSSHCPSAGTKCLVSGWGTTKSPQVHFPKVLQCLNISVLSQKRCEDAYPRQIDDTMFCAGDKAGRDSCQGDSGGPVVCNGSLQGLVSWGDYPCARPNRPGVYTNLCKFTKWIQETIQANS
# Kallikrein-1 = Kallikrein-1 (Homo sapiens, UniProt P06870); assay: Inhibition of recombinant bovine enterokinase activated N-terminal His-tagged recombinant human KLK1 (19 to 262 residues) expressed in baculovirus infected Sf9 insect cells using 3',6'-bis(prolylphenylalanylarginylamino)3H-spiro(2-benzofuran-1,9'-xanthen)-3-one;TFA as substrate measured at 30 secs interval for 5 mins by fluorescence intensity assay
# Homo sapiens = species: Homo sapiens; assay: Selectivity index, ratio of compound effect for inhibition of recombinant bovine enterokinase activated N-terminal His-tagged recombinant human KLK1 (19 to 262 residues) expressed in baculovirus infected Sf9 insect cells to compound effect for inhibition of recombinant 6His-Q-FLAG tagged human KLK5 expressed in baculovirus infected insect Sf9 cells
# [1] = Solubility of the compound in pH 6 Britton-Robinson buffer at 24 hrs; type: physicochemical; conditions: buffer, pH 6, 24 h
# [2] = Absorption property in methanol assessed as molar extinction co-efficient by UV-spectra analysis; type: physicochemical
# [3] = Absorption property in methanol assessed as maximum absorption wavelength by UV-spectra analysis; type: physicochemical
# [4] = Solubility of the compound in pH 4 Britton-Robinson buffer at 24 hrs; type: physicochemical; conditions: buffer, pH 4, 24 h
# [5] = Half life in pH 6 buffer at 0.05 mg/ml under H2O2-induced oxidative condition over 24 hrs; type: physicochemical; conditions: buffer with H2O2, pH 6
# [6] = Half life in pH 8 buffer at 0.05 mg/ml under H2O2-induced oxidative condition over 24 hrs; type: physicochemical; conditions: buffer with H2O2, pH 8
# [7] = Solubility of the compound in water at 24 hrs; type: physicochemical
# [8] = Half life in pH 4 to 8 buffer at 0.05 mg/ml over 24 hrs; type: physicochemical
# Kallikrein-1, sequence (P06870 whole entry, the tested form may be a part): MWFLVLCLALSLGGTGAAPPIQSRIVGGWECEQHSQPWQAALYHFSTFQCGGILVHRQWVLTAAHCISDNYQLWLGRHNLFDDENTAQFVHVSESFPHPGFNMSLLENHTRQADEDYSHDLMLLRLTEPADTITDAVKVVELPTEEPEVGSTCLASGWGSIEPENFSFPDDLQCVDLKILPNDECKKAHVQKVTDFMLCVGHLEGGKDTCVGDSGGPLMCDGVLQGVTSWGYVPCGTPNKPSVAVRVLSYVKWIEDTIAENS
Structure (SMILES),IC50 (Kallikrein-5; read-out: pIC50 (converted)),IC50 (Kallikrein-1),other results
N=C(N)c1ccc(NCc2ncc[nH]2)cc1,25.1 µM,63.1 µM,–
N=C(N)c1ccc(NCc2nc(-c3ccccc3)c[nH]2)cc1OCc1cccc(Cl)c1,0.0794 µM,> 5.01 µM,–
N=C(N)c1ccc(NCc2nc(-c3ccccc3)c[nH]2)cc1OCCC1CC1,0.2 µM,50.1 µM,Selectivity Index (Homo sapiens): 250
N=C(N)c1ccc(NCc2nc(-c3ccccc3)c[nH]2)cc1OCC(=O)NCC1CC1,0.0398 µM,> 6.31 µM,solubility [1]: Soluble; Activity [2]: > 1000 a.u.L/mol.cm; Activity [3]: > 290 nm; solubility [4]: Soluble; half-life at 0.05 mg/ml [5]: 26.7 h; half-life at 0.05 mg/ml [6]: 14 h; solubility at 24 h [7]: 3000 µg/mL; half-life at 0.05 mg/ml [8]: > 1000 h
N=C(N)c1ccc(NCc2nc(-c3ccccc3)c[nH]2)cc1OCC(=O)NC1CC1,0.0794 µM,15.8 µM,–
Cc1ccc2[nH]c(CNc3ccc(C(=N)N)cc3)nc2c1,10 µM,6.31 µM,–
N=C(N)c1ccc(NCc2nc(-c3ccccc3)c[nH]2)cc1OCc1ccccn1,0.126 µM,20 µM,–
N=C(N)c1ccc(NCc2nc(-c3ccccc3)c[nH]2)cc1OCc1ccccc1Cl,0.0316 µM,> 2.51 µM,–
N=C(N)c1ccc(NCc2nc3cc(Cl)ccc3[nH]2)cc1,10 µM,2 µM,–
N=C(N)c1ccc(NCc2nc(-c3ccccc3)c[nH]2)cc1OCc1ccc(Cl)cc1,0.0631 µM,> 5.01 µM,–
CC(C)COc1cc(NCc2nc(-c3ccccc3)c[nH]2)ccc1C(=N)N,6.31 µM,79.4 µM,–
COc1ccc2[nH]c(CNc3ccc(C(=N)N)cc3)nc2c1,12.6 µM,31.6 µM,–
CN(C)CCOc1cc(NCc2nc(-c3ccccc3)c[nH]2)ccc1C(=N)N,15.8 µM,79.4 µM,–
N=C(N)c1ccc(NCc2nc(-c3ccccc3)c[nH]2)cc1,6.31 µM,25.1 µM,–
N=C(N)c1ccc(NCc2nc3ccccc3[nH]2)cc1,20 µM,39.8 µM,–
N=C(N)c1ccc(NCc2nc(-c3ccccc3)c[nH]2)cc1OCCO,3.98 µM,79.4 µM,–
Cn1ccnc1CNc1ccc(C(=N)N)cc1,126 µM,398 µM,–
Cn1c(CNc2ccc(C(=N)N)cc2)nc2ccccc21,15.8 µM,6.31 µM,–
N=C(N)c1ccc(NCc2nc(-c3ccccc3)c[nH]2)cc1OCc1ccccc1,0.0794 µM,25.1 µM,IC50 (Kallikrein-5; read-out: IC50): < 0.01 µM; Selectivity Index (Homo sapiens): 300
N=C(N)c1ccc(NCc2nc(-c3ccccc3)c[nH]2)cc1OCC1CC1,0.794 µM,50.1 µM,Selectivity Index (Homo sapiens): 60
CCOc1cc(NCc2nc(-c3ccccc3)c[nH]2)ccc1C(=N)N,0.316 µM,6.31 µM,Selectivity Index (Homo sapiens): 20
N=C(N)c1ccc(NCc2nc(-c3ccccc3)c[nH]2)cc1OCC(N)=O,0.794 µM,> 50.1 µM,–
CNC(=O)COc1cc(NCc2nc(-c3ccccc3)c[nH]2)ccc1C(=N)N,0.251 µM,31.6 µM,–
N=C(N)c1ccc(NCc2nc(-c3ccccc3)c[nH]2)cc1OCc1ncccn1,0.0794 µM,39.8 µM,–
N=C(N)c1ccc(NCc2nc(-c3ccccc3)c[nH]2)cc1OCc1ncco1,0.1 µM,12.6 µM,–
